SMILES strings stand for the structures. In brackets after ≈: the same amount, converted by molar mass.

One data set has as its target T1, Pancreatic alpha-amylase (Sus scrofa, UniProt P00690).
T1 sequence (P00690 whole entry): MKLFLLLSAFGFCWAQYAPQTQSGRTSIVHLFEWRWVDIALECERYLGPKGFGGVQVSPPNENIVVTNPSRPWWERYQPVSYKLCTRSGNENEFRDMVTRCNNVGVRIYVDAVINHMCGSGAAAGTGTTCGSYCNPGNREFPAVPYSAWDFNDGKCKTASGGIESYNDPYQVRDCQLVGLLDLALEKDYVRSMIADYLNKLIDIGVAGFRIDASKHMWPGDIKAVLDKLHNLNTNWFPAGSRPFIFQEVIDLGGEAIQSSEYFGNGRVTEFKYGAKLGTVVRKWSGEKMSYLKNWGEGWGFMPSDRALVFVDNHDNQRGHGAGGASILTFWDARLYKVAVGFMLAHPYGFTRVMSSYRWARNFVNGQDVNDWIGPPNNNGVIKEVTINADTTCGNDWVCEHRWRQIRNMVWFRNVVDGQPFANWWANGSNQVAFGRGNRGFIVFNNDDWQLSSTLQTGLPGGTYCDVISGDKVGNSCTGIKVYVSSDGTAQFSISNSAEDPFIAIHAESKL
The experiment in a line: Inhibition of porcine pancreatic alpha-amylase using 1% starch as substrate preincubated for 10 mins followed by substrate addition and measured after 10 mins by absorbance method.

Another data set has as its system Candida albicans. Description: Antifungal activity against Candida albicans ATCC 10231 incubated for 24 hrs by broth microdilution method. The class given is functional.
Data set [1] deals with Bacillus spizizenii. The experiment in a line: Antibacterial activity against Bacillus subtilis ATCC 6633 incubated for 24 hrs by two fold serial dilution method. In kind it is functional.
Data set [2] concerns Staphylococcus aureus. Description: Antibacterial activity against Staphylococcus aureus ATCC 6538 by MH media dilution method. The class given is functional.
Data set [3] deals with Pseudomonas aeruginosa. The experiment in a line: Antibacterial activity against Pseudomonas aeruginosa ATCC 13525 by MH media dilution method. The class given is functional.
In data set [4] the test system is Escherichia coli. Description: Antibacterial activity against Escherichia coli ATCC 35218 incubated for 24 hrs by two fold serial dilution method. In kind it is functional.
Data set [5] has as its system Pseudomonas aeruginosa. The experiment in a line: Antibacterial activity against Pseudomonas aeruginosa ATCC 13525 incubated for 24 hrs by two fold serial dilution method. In kind it is functional.
In data set [6] the test system is Staphylococcus aureus. The experiment in a line: Antibacterial activity against Staphylococcus aureus ATCC 6538 incubated for 24 hrs by two fold serial dilution method. In kind it is functional.
Data set [7] concerns Escherichia coli. Description: Antibacterial activity against Escherichia coli ATCC 35218 by MH media dilution method. In kind it is functional.
Data set [8] has as its system Bacillus spizizenii. Description: Antibacterial activity against Bacillus subtilis ATCC 6633 by MH media dilution method. In kind it is functional.
Another data set deals with HepG2. The experiment in a line: Antiproliferative activity against human HepG2 cells incubated for 24 to 48 hrs by CCK8 assay. The class given is functional, cell-based.
A further data set has as its system U-251. Description: Antiproliferative activity against human U-251 cells incubated for 24 to 48 hrs by CCK8 assay. The class given is functional, cell-based.
For a further data set, the system named is HeLa. The experiment in a line: Antiproliferative activity against human Hela cells incubated for 24 to 48 hrs by CCK8 assay. The class given is functional, cell-based.
Another data set concerns A549. Description: Antiproliferative activity against human A549 cells incubated for 24 to 48 hrs by CCK8 assay. In kind it is functional, cell-based.
Another data set concerns Leishmania mexicana. Description: Antileishmanial activity against promastigote form of Leishmania mexicana MHOM/BZ/82/Bel21 measured for 7 days by cell counting method. The class given is functional. The settings on record: MHOM/BZ/82/Bel21, 168 h, time 7 day.
The subject of a further data set is Leishmania braziliensis. The experiment in a line: Antileishmanial activity against promastigote form of Leishmania braziliensis MHOM/BR/75/M2903 measured for 7 days by cell counting method. In kind it is functional. To be noted: MHOM/BR/75/M2903, 168 h, time 7 day.
The test system of data set [9] is Giardia intestinalis. The experiment in a line: Antigiardial activity against Giardia intestinalis WB ATCC 30957 by trypan blue staining based assay. The class given is functional, organism-based. To be noted: Giardia duodenalis.
The test system of another data set is Entamoeba histolytica. Description: Antiamoebic activity against Entamoeba histolytica HK9 ATCC 30015 by trypan blue staining based assay. The class given is functional, organism-based.
The target in another data set is Carbonic anhydrase 2 (Homo sapiens, UniProt P00918). Description: Inhibition of recombinant human carbonic anhydrase 2 preincubated with enzyme for 15 mins by phenol red dye based stopped flow CO2 hydration assay.
The target in a further data set is Carbonic anhydrase 9 (Homo sapiens, UniProt Q16790). The experiment in a line: Inhibition of recombinant human carbonic anhydrase 9 preincubated with enzyme for 15 mins by phenol red dye based stopped flow CO2 hydration assay.
Data set [10] has as its system Staphylococcus aureus. The experiment in a line: Antibacterial activity against Staphylococcus aureus ATCC 6538P incubated for 24 hrs by broth microdilution method. In kind it is functional.
In data set [11] the test system is Escherichia coli. The experiment in a line: Antibacterial activity against Escherichia coli ATCC 8739 incubated for 24 hrs by broth microdilution method. The class given is functional.
Data set [12] in a line: Selectivity index, ratio of CC50 for African green monkey Vero cells to IC50 for antigiardial activity against Giardia intestinalis MSS:0696:1. In kind it is toxicity. The settings on record: read-out: Ratio CC50/IC50.
A further data set concerns Trichomonas vaginalis. Description: Anti-trichomonas activity against Trichomonas vaginalis GT3 incubated for 48 hrs. The class given is functional, organism-based. The settings on record: GT3, 48 h.
Data set [13] in a line: Selectivity index, ratio of CC50 for African green monkey Vero cells to IC50 for antigiardial activity against Trichomonas vaginalis GT3. The class given is toxicity. The settings on record: read-out: Ratio CC50/IC50.
Data set [14] concerns Giardia intestinalis. The experiment in a line: Antigiardial activity against Giardia intestinalis MSS:0696:1 incubated for 48 hrs. The settings on record: Giardia duodenalis, MSS:0696:1, 48 h. The class given is functional, organism-based.

For `COc1cccc(COCCn2c([N+](=O)[O-])cnc2C)c1`, the 50% inhibitory concentration (IC50) against Pancreatic alpha-amylase was less than 2.98 µM.

For the molecule `Cc1ccc(COCCn2c([N+](=O)[O-])cnc2C)cc1`, the half-inhibitory concentration (IC50) against Pancreatic alpha-amylase is less than 2.98 µM.

In the data set on Candida albicans, `Cc1ncc([N+](=O)[O-])n1CC/N=C/c1ccc([N+](=O)[O-])cc1` had an MIC of 170 µM (≈ 51.6 µg/mL).

In turn, `COc1ccc(/C=N/CCn2c([N+](=O)[O-])cnc2C)cc1` came in with a minimal inhibitory concentration (MIC) in the data set on Candida albicans of 170 µM (≈ 49 µg/mL).

`Cc1ncc([N+](=O)[O-])n1CCOCc1ccc[nH]1` returned an IC50 against Pancreatic alpha-amylase of less than 2.98 µM.

Regarding `CC1(C)S[C@@H]2[C@H](NC(=O)Cc3ccccc3)C(=O)N2[C@H]1C(=O)O` [PENICILLIN G], the MIC against Bacillus spizizenii [1] is 1.56 µg/mL (≈ 4.67 µM); against Staphylococcus aureus [2], 1.96 µg/mL (≈ 5.86 µM); in the data set on Pseudomonas aeruginosa [3], 7.82 µg/mL (≈ 23.4 µM); against Escherichia coli [4], 3.13 µg/mL (≈ 9.36 µM); against Pseudomonas aeruginosa [5], 6.25 µg/mL (≈ 18.7 µM); in the data set with Staphylococcus aureus [6], 6.25 µg/mL (≈ 18.7 µM). The values for the minimum inhibitory concentration (MIC) against Escherichia coli [7] and against Bacillus spizizenii [8] were 7.82 µg/mL (≈ 23.4 µM) and 0.98 µg/mL (≈ 2.93 µM), respectively.

Take `Cc1ncc([N+](=O)[O-])n1CC/N=C/c1cccs1`: the minimal inhibitory concentration (MIC) with Candida albicans is 170 µM (≈ 44.9 µg/mL).

As for `C[C@@H]1CCN(C(=O)CC#N)C[C@@H]1N(C)c1ncnc2[nH]ccc12` [TOFACITINIB], the IC50 turned out to be 0.11 µM with HepG2, 0.33 µM in the data set with U-251, 0.04 µM in the data set with HeLa and 0.1 µM in the data set with A549.

Turning to `O=C(N[C@H](CO)[C@H](O)c1ccc([N+](=O)[O-])cc1)C(Cl)Cl` [CHLORAMPHENICOL], the MIC against Staphylococcus aureus [2] came to 3.91 µg/mL (≈ 12.1 µM); against Pseudomonas aeruginosa [3] it was 0.98 µg/mL (≈ 3.03 µM); against Escherichia coli [7], 3.91 µg/mL (≈ 12.1 µM); against Bacillus spizizenii [8] it was 3.91 µg/mL (≈ 12.1 µM).

Consider `Cc1ncc([N+](=O)[O-])n1CCOCc1ccc(F)cc1Br`, for which the half-inhibitory concentration (IC50) at Pancreatic alpha-amylase is less than 2.98 µM.

In the case of `Cc1ccccc1COCCn1c([N+](=O)[O-])cnc1C`, the IC50 against Pancreatic alpha-amylase is less than 2.98 µM.

In turn, `COc1cc(COCCn2c([N+](=O)[O-])cnc2C)cc(OC)c1` showed an IC50 against Pancreatic alpha-amylase of less than 2.98 µM.

`Cc1ncc([N+](=O)[O-])n1CC/N=C/c1ccc(F)cc1` showed a minimal inhibitory concentration (MIC) against Candida albicans of 170 µM (≈ 47 µg/mL).

On to `Cc1ncc([N+](=O)[O-])n1CC/N=C/c1ccccc1Cl`, for which the MIC in the data set on Candida albicans amounted to 170 µM (≈ 49.8 µg/mL).

Take `Cc1cccc(COCCn2c([N+](=O)[O-])cnc2C)c1`: the concentration for half-maximal inhibition (IC50) on Pancreatic alpha-amylase stood at 0.38 µM.

Regarding `Cc1ncc([N+](=O)[O-])n1CCSCOC(=O)c1cc(O)c(O)c(O)c1`, the 50% lethal concentration (LC50) with Leishmania mexicana is 1 µM; with Leishmania braziliensis it was 4 µM.

With `CCOC(=O)C(CCCCNC(=O)C(C)n1c([N+](=O)[O-])cnc1C)NC(=O)Cn1c([N+](=O)[O-])cnc1C` (stereo unspecified), the IC50 in the data set with Giardia intestinalis [9] was 3.84 µM; in the data set with Entamoeba histolytica, 3.95 µM.

Take `Cc1ncc([N+](=O)[O-])n1CCSCO`: the values for the 50% lethal concentration (LC50) in the data set on Leishmania mexicana and in the data set on Leishmania braziliensis were 2250 µM and 950 µM, respectively.

The molecule `Cc1ncc([N+](=O)[O-])n1CCOCc1ccc2ccccc2c1` returned an IC50 on Pancreatic alpha-amylase of 1.66 µM.

In the case of `Cc1ncc([N+](=O)[O-])n1CCOc1ccc(/C=N\c2ccc(S(=O)(=O)NC(=N)N)cc2)cc1`, the IC50 on Carbonic anhydrase 2 was 0.07 µM; on Carbonic anhydrase 9 it was 0.135 µM.

The molecule `Cc1ncc([N+](=O)[O-])n1CCOCc1ccccc1` returned an IC50 against Pancreatic alpha-amylase of less than 2.98 µM.

`NC[C@H]1O[C@H](O[C@H]2[C@H](O)[C@@H](O[C@H]3O[C@H](CO)[C@@H](O)[C@H](N)[C@H]3O)[C@H](N)C[C@@H]2N)[C@H](N)[C@@H](O)[C@@H]1O` [BEKANAMYCIN]: the minimum inhibitory concentration (MIC) against Bacillus spizizenii [1] turned out to be 0.78 µg/mL (≈ 1.61 µM); in the data set with Escherichia coli [4] it was 1.56 µg/mL (≈ 3.23 µM); with Pseudomonas aeruginosa [5] it was 3.13 µg/mL (≈ 6.47 µM); in the data set on Staphylococcus aureus [6] it was 1.56 µg/mL (≈ 3.23 µM).

Regarding `Cc1cc(NNS(=O)(=O)c2ccc(/N=C\c3ccc(OCCn4c([N+](=O)[O-])cnc4C)cc3)cc2)no1`, the IC50 came out at 0.033 µM on Carbonic anhydrase 2 and 0.112 µM on Carbonic anhydrase 9.

Take `Cc1ncc([N+](=O)[O-])n1CC/N=C/c1ccccc1O`: the MIC came to 2000 µM (≈ 549 µg/mL) against Staphylococcus aureus [10], 170 µM (≈ 46.6 µg/mL) against Candida albicans and 2240 µM (≈ 614 µg/mL) in the data set with Escherichia coli [11].

With `Cc1ncc([N+](=O)[O-])n1CC(C)O` (stereo unspecified) [SECNIDAZOLE], the selectivity ratio in [12] is greater than 24; in data set [13], greater than 7. Besides, the IC50 stood at 13.5 µM in the data set on Trichomonas vaginalis and 4.41 µM in the data set with Giardia intestinalis [14].

(Values after ChEMBL document CHEMBL4813920, “Metronidazole-conjugates: A comprehensive review of recent developments towards synthesis and medicinal perspective” (Eur J Med Chem, 2021).)
